Literature values in patent US20250134875A1, “FORMULATIONS OF ALK-5 KINASE INHIBITORS AND USES THEREOF” (Thirona Bio, Inc., priority 2023, published 2025).

Tests used:
[1] = system: mouse fibroblasts and fat precursor cells; conditions: cited from earlier work
[2] = system: fibroblasts derived from human PD plaque; conditions: cited from earlier work
[3] = system: rat PD models; conditions: cited from earlier work
[4] = system: TGF-β-induced expression of ACTA2, Col1a1 and Col3a1; conditions: 3D culture model of DC-specimens; cited from earlier work
[5] = system: mouse skin; conditions: cited from earlier work
[6] = system: human outer root sheath cells; conditions: cited from earlier work
[7] = system: A549 cells; conditions: cited from earlier work
[8] = biological target: T1, TNF (Homo sapiens, UniProt P01375); conditions: cited from earlier work
T1 construct: host or cells: Dupuytren's nodules of patients (in vivo, endogenous)

[9] = system: TGF-β; conditions: cited from earlier work

T1 sequence (P01375 77-233 limits assumed): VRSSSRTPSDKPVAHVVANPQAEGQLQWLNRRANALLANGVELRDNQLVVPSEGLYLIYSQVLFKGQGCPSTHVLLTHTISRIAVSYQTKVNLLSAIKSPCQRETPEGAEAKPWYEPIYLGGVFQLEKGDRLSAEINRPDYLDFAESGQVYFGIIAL

## Cc1cccc(-c2nn(C(=S)Nc3ccccc3)cc2-c2ccnc3ccccc23)n1 [Formulation A83-01]
[1]
  Brown fat adipogenesis: induced brown fat adipogenesis

## Cc1cccc(-c2[nH]c(Cc3cccc(C(N)=O)c3)nc2-c2ccc3nccnc3c2)n1 [IN-1130]
[2]
  TGF-β1-induced production of PAI-1, fibronectin, collagen 1 and collagen 4: significantly reduced
[3]
  Curvature and fibrosis: improved curvature and fibrosis

## Cc1cccc(-c2nn3c(c2-c2ccnc4ccc(C(N)=O)cc24)CCC3)n1 [LY2157299]
[1]
  Brown fat adipogenesis: induced brown fat adipogenesis

## NC(=O)c1ccc(-c2nc(-c3ccc4c(c3)OCO4)c(-c3ccccn3)[nH]2)cc1 [SB-431542]
[4]
  TGF-β-induced expression of ACTA2, Col1a1 and Col3a1: suppressed
[1]
  Brown fat adipogenesis: induced brown fat adipogenesis

## Cc1csc(-c2[nH]cnc2-c2ccc3ncsc3c2)n1 [TP0427736]
[5]; repeated topical application
  Average hair follicle length during transition from late anagen to catagen phase: suppressed the shortening
[5]; topical application
  Smad2 phosphorylation in mouse skin: significantly decreased
[6]
  Growth inhibition of human outer root sheath cells: decreased the growth inhibition
[7]
  Smad2/3 phosphorylation: inhibited

## COc1ccc(/C=C/C(=O)Nc2ccccc2C(=O)O)cc1OC [Tanilast]
[1]
  Brown fat adipogenesis: induced brown fat adipogenesis

## adalimumab
[8]; Phase 2a trial, intranodular
  Phenotype of myofibroblasts: downregulated the phenotype of myofibroblasts
[8]; Phase 2b trial
  Nodule harness and size by ultrasound: decreased nodule harness and size

## fresolimumab: TGF-β neutralizing antibody which targets all three TGF-β isoforms
[9]; systemic sclerosis patients (N=15), 1 mg/kg twice or 5 mg/kg once, p=0.0002 within 3 weeks
  Clinical skin disease (fibrosis), modified Rodnan skin score (MRSS): dramatically reversed
[9]; systemic sclerosis patients
  Pro-fibrotic TGF-β gene expression profiles in the skin: decreased
  Systemic side effects: significant systemic side effects, notably bleeding
